Results published in ChEMBL document CHEMBL4033756, “Identification of Better Pharmacokinetic Benzothiazinone Derivatives as New Antitubercular Agents” (ACS Med Chem Lett, 2017).
In brackets after ≈: the same amount, converted by molar mass.

Columns and labels:
Mus musculus = test: Acute toxicity in Kunming mouse assessed as mortality at 500 mg/kg, po measured during first 4 hours and then each hour for next 24 hrs and at 8 hourly intervals for following 7 days post dose; format: organism-based; settings: in vivo
[1] = AUC (0 to infinity) in ICR mouse at 50 mg/kg, po by HPLC analysis; format: ADME, organism-based; parameters: dose 50 mg/kg, time infinity, route oral; settings: in vivo
[2] = Elimination half life in ICR mouse at 50 mg/kg, po by HPLC analysis; format: ADME, organism-based; settings: in vivo, read-out: beta t1/2 (converted)
[3] = Cytotoxicity against African green monkey Vero cells assessed as cell viability after 72 hrs by MTT assay; format: cell-based; settings: chlorocebus sabaeus
[4] = Aqueous solubility of the compound at pH 2 after 12 hrs by HPLC-UV method; format: physicochemical
[5] = Cmax in ICR mouse at 50 mg/kg, po by HPLC analysis; format: ADME, organism-based; parameters: dose 50 mg/kg, route oral; settings: in vivo
[6] = MRT in ICR mouse at 50 mg/kg, po by HPLC analysis; format: ADME, organism-based; settings: in vivo
[7] = Tmax in ICR mouse at 50 mg/kg, po by HPLC analysis; format: ADME, organism-based; settings: in vivo
[8] = tested on: Mycobacterium tuberculosis; test: Antitubercular activity against Mycobacterium tuberculosis H37Rv after 7 days by microplate alamar blue assay; format: functional; settings: 168 h

Structure (SMILES): O=c1nc(N2CCC3(CCN(Cc4ccc(Br)cc4)CC3)CC2)sc2c([N+](=O)[O-])cc(C(F)(F)F)cc12
- Activity (Mus musculus): Non-Toxic
- AUC(0-inf) [1]: 24600 ng·h/mL
- half-life [2]: 10.7 h
- CC50 at 72 h [3]: 1680 µM
- solubility at 12 h [4]: 1.17 µg/mL (≈ 1.96 µM)
- Cmax [5]: 1680 ng/mL
- MRT [6]: 15.9 h
- Tmax [7]: 1 h
- MIC90 [8]: 0.057 µM (≈ 0.0341 µg/mL)

Structure (SMILES): O=c1nc(N2CCC3(CCN(Cc4cccc(F)c4)CC3)CC2)sc2c([N+](=O)[O-])cc(C(F)(F)F)cc12
- Activity (Mus musculus): Non-Toxic
- AUC(0-inf) [1]: 4870 ng·h/mL
- half-life [2]: 3.53 h
- CC50 at 72 h [3]: 1400 µM
- solubility at 12 h [4]: 1.13 µg/mL (≈ 2.11 µM)
- Cmax [5]: 901 ng/mL
- MRT [6]: 4.83 h
- Tmax [7]: 0.67 h
- MIC90 [8]: 0.054 µM (≈ 0.029 µg/mL)

Structure (SMILES): O=c1nc(N2CCC3(CCN(Cc4ccccc4)C3)CC2)sc2c([N+](=O)[O-])cc(C(F)(F)F)cc12
- CC50 at 72 h [3]: 289 µM
- solubility at 12 h [4]: 1.56 µg/mL (≈ 3.09 µM)
- MIC90 [8]: 0.06 µM (≈ 0.0303 µg/mL)

Structure (SMILES): O=c1nc(N2CCC3(CCN(Cc4ccc(F)cc4)C3)CC2)sc2c([N+](=O)[O-])cc(C(F)(F)F)cc12
- AUC(0-inf) [1]: 6020 ng·h/mL
- half-life [2]: 3.11 h
- CC50 at 72 h [3]: 811 µM
- solubility at 12 h [4]: 1.12 µg/mL (≈ 2.14 µM)
- Cmax [5]: 1230 ng/mL
- MRT [6]: 4 h
- Tmax [7]: 1.08 h
- MIC90 [8]: < 0.035 µM

Structure (SMILES): COc1ccc(C(=O)N2CCC3(CC2)CCN(c2nc(=O)c4cc(C(F)(F)F)cc([N+](=O)[O-])c4s2)CC3)cc1
- MIC90 [8]: 26.6 µM (≈ 15 µg/mL)

Structure (SMILES): O=c1nc(N2CCC3(CCN(Cc4cc(F)cc(F)c4)CC3)CC2)sc2c([N+](=O)[O-])cc(C(F)(F)F)cc12
- Activity (Mus musculus): Non-Toxic
- AUC(0-inf) [1]: 2600 ng·h/mL
- half-life [2]: 4.68 h
- CC50 at 72 h [3]: 1170 µM
- solubility at 12 h [4]: 0.67 µg/mL (≈ 1.21 µM)
- Cmax [5]: 426 ng/mL
- MRT [6]: 5.8 h
- Tmax [7]: 0.5 h
- MIC90 [8]: < 0.035 µM

Structure (SMILES): CC(C)(C)OC(=O)N1CCC2(CCN(c3nc(=O)c4cc(C(F)(F)F)cc([N+](=O)[O-])c4s3)CC2)C1
- MIC90 [8]: 3.26 µM (≈ 1.68 µg/mL)

Structure (SMILES): COc1ccc(CN2CCC3(CC2)CCN(c2nc(=O)c4cc(C(F)(F)F)cc([N+](=O)[O-])c4s2)CC3)cc1
- MIC90 [8]: 1 µM (≈ 0.551 µg/mL)

Structure (SMILES): CCN(CC)C(=O)CN1CCC2(CC1)CCN(c1nc(=O)c3cc(C(F)(F)F)cc([N+](=O)[O-])c3s1)CC2
- MIC90 [8]: 6.32 µM (≈ 3.42 µg/mL)

Structure (SMILES): CCOC(=O)CN1CCC2(CCN(c3nc(=O)c4cc(C(F)(F)F)cc([N+](=O)[O-])c4s3)CC2)C1
- Activity (Mus musculus): Non-Toxic
- AUC(0-inf) [1]: 41.8 ng·h/mL
- half-life [2]: 3.46 h
- CC50 at 72 h [3]: 266 µM
- solubility at 12 h [4]: 2.04 µg/mL (≈ 4.08 µM)
- Cmax [5]: 17.6 ng/mL
- MRT [6]: 5.2 h
- Tmax [7]: 0.67 h
- MIC90 [8]: 0.062 µM (≈ 0.031 µg/mL)

Structure (SMILES): CN1CCC2(CC1)CCN(c1nc(=O)c3cc(C(F)(F)F)cc([N+](=O)[O-])c3s1)CC2
- MIC90 [8]: 33.5 µM (≈ 14.8 µg/mL)

Structure (SMILES): COc1cc(CN2CCC3(CC2)CCN(c2nc(=O)c4cc(C(F)(F)F)cc([N+](=O)[O-])c4s2)CC3)cc(OC)c1
- MIC90 [8]: 0.825 µM (≈ 0.477 µg/mL)

Structure (SMILES): O=C(CN1CCC2(CC1)CCN(c1nc(=O)c3cc(C(F)(F)F)cc([N+](=O)[O-])c3s1)CC2)OCc1ccccc1
- MIC90 [8]: 0.352 µM (≈ 0.203 µg/mL)

Structure (SMILES): COc1ccc(CN2CCC3(CCN(c4nc(=O)c5cc(C(F)(F)F)cc([N+](=O)[O-])c5s4)CC3)C2)cc1
- CC50 at 72 h [3]: 86.2 µM
- solubility at 12 h [4]: 1.4 µg/mL (≈ 2.62 µM)
- MIC90 [8]: 0.112 µM (≈ 0.0599 µg/mL)

Structure (SMILES): CCOC(=O)CN1CCC2(CC1)CCN(c1nc(=O)c3cc(C(F)(F)F)cc([N+](=O)[O-])c3s1)CC2
- MIC90 [8]: 0.542 µM (≈ 0.279 µg/mL)

Structure (SMILES): CO[C@H]1/C=C/O[C@@]2(C)Oc3c(C)c(O)c4c(O)c(c(/C=N/N5CCN(C)CC5)c(O)c4c3C2=O)NC(=O)/C(C)=C\C=C\[C@H](C)[C@H](O)[C@@H](C)[C@@H](O)[C@@H](C)[C@H](OC(C)=O)[C@@H]1C [RIFAMPIN]
- MIC90 [8]: 0.092 µM (≈ 0.0757 µg/mL)

Structure (SMILES): O=c1nc(N2CCC3(CCN(Cc4ccc(F)cc4)CC3)CC2)sc2c([N+](=O)[O-])cc(C(F)(F)F)cc12
- MIC90 [8]: 0.21 µM (≈ 0.113 µg/mL)

Structure (SMILES): O=C(CN1CCC2(CC1)CCN(c1nc(=O)c3cc(C(F)(F)F)cc([N+](=O)[O-])c3s1)CC2)NCc1ccccc1
- MIC90 [8]: 6.42 µM (≈ 3.69 µg/mL)

Structure (SMILES): O=c1nc(N2CCC3(CCN(CC4CCCCC4)C3)CC2)sc2c([N+](=O)[O-])cc(C(F)(F)F)cc12
- MIC90 [8]: 0.22 µM (≈ 0.112 µg/mL)

Structure (SMILES): COc1ccccc1CN1CCC2(CCN(c3nc(=O)c4cc(C(F)(F)F)cc([N+](=O)[O-])c4s3)CC2)C1
- MIC90 [8]: 1.68 µM (≈ 0.896 µg/mL)

Structure (SMILES): CC(C)(C)OC(=O)N1CCC2(CC1)CCN(c1nc(=O)c3cc(C(F)(F)F)cc([N+](=O)[O-])c3s1)CC2
- MIC90 [8]: 0.219 µM (≈ 0.116 µg/mL)

Structure (SMILES): O=c1nc(N2CCN(CC3CCCCC3)CC2)sc2c([N+](=O)[O-])cc(C(F)(F)F)cc12 [MACOZINONE]
- AUC(0-inf) [1]: 5480 ng·h/mL
- half-life [2]: 2.87 h
- CC50 at 72 h [3]: 1400 µM
- solubility at 12 h [4]: 0.9 µg/mL (≈ 1.97 µM)
- Cmax [5]: 1300 ng/mL
- MRT [6]: 3.73 h
- Tmax [7]: 0.83 h
- MIC90 [8]: < 0.035 µM

Structure (SMILES): CCOC(=O)CN1CC2(CCN(c3nc(=O)c4cc(C(F)(F)F)cc([N+](=O)[O-])c4s3)CC2)C1
- MIC90 [8]: 0.444 µM (≈ 0.216 µg/mL)

Structure (SMILES): COc1ccc(CN2CC3(CCN(c4nc(=O)c5cc(C(F)(F)F)cc([N+](=O)[O-])c5s4)CC3)C2)cc1
- CC50 at 72 h [3]: 78.9 µM
- solubility at 12 h [4]: 1.2 µg/mL (≈ 2.31 µM)
- MIC90 [8]: 0.113 µM (≈ 0.0588 µg/mL)

Structure (SMILES): O=c1nc(N2CCC3(CCN(Cc4ccc(C(F)(F)F)cc4)CC3)CC2)sc2c([N+](=O)[O-])cc(C(F)(F)F)cc12
- Activity (Mus musculus): Non-Toxic
- AUC(0-inf) [1]: 28700 ng·h/mL
- half-life [2]: 3.59 h
- CC50 at 72 h [3]: 145 µM
- solubility at 12 h [4]: 1.24 µg/mL (≈ 2.11 µM)
- Cmax [5]: 2700 ng/mL
- MRT [6]: 6.07 h
- Tmax [7]: 1.33 h
- MIC90 [8]: < 0.035 µM

Structure (SMILES): CC(C)(C)OC(=O)N1CC2(CCN(c3nc(=O)c4cc(C(F)(F)F)cc([N+](=O)[O-])c4s3)CC2)C1
- MIC90 [8]: 1.92 µM (≈ 0.963 µg/mL)

Structure (SMILES): NNC(=O)c1ccncc1 [ISONIAZID]
- MIC90 [8]: 0.284 µM (≈ 0.0389 µg/mL)

Structure (SMILES): O=c1nc(N2CCC3(CCN(CC4CCCCC4)CC3)CC2)sc2c([N+](=O)[O-])cc(C(F)(F)F)cc12
- MIC90 [8]: 0.944 µM (≈ 0.495 µg/mL)

Structure (SMILES): O=c1nc(N2CCC3(CC2)CN(CC2CCCCC2)C3)sc2c([N+](=O)[O-])cc(C(F)(F)F)cc12
- MIC90 [8]: 0.468 µM (≈ 0.232 µg/mL)

Structure (SMILES): O=c1nc(N2CCC3(CCN(Cc4ccccc4)CC3)CC2)sc2c([N+](=O)[O-])cc(C(F)(F)F)cc12
- MIC90 [8]: 0.847 µM (≈ 0.439 µg/mL)
